Experimental data reported in patent US20220340849A1, “BRAIN-CHIP MODELING NEURODEGENERATION AND NEUROINFLAMMATION IN PARKINSON'S DISEASE” (EMULATE, INC., priority 2019, published 2022).

Assays:
[1] = system: brain channel cells of the SN Brain-Chip (dopaminergic neurons); assay: Immunostaining of phospho-αSyn129 / αSyn accumulation in the brain channel; format: cell-based, human; conditions: 10 mM dose, compared to cells exposed to αSyn fibrils alone
Description: Thus, the capability of exogenously added fibrils was accessed for accumulation and processing cells of a SN Brain-Chip. Recombinant αSyn fibrils (4 μg/mL) was added in the culture medium of the brain channel under continuous flow, on Day 2 of the culture (FIG. 57A).
After three- and six-days upon-exposure to αSyn fibrils (D5 and D8 of the experiment, respectively), the exposed chips underwent immunostaining in order to determine the abundance of phosphoSer129-alph α-synuclein (phospho-αSyn129), a post-translational modification characteristic of pathogenic αSyn species^47,48.
Addition of exogenous alpha-synuclein to brain channel. Human recombinant αSyn monomers and pre-formed fibrils were purchased from Abcam (Monomers; ab218819, Fibrils; ab218819), and were diluted in DopaNeurons Media to a final concentration of 4 μg/mL. […]
For treatment, freshly prepared monomers and fibrils were used. […] Effluents, lysates, and staining were collected/fixed at day three- and day six post-exposure (D5 and D8 respectively), and were analyzed by a microplate reader, ELISA kits, and immunofluorescence microscopy.
Morphological analysis. […] Images were acquired with either an Olympus fluorescence microscope (IX83) or an inverted laser-scanning confocal microscope, e.g. Zeiss confocal microscope (AxiovertZ1 LSM880).

BBB in the SN Brain-Chip = assay: Permeability assays (apparent permeability, Papp) on the SN Brain-Chip; format: cell-based, human; conditions: αSyn fibril damaged SN Brain-Chips, trehalose added via brain channel on day 5, read after 72 hours (D8)
Description: Thus, BBB permeability assays were measured on the SN Brain-Chip after exposure to αSyn fibrils, as compared to exposure to αSyn monomers or PBS.
Permeability Assays, e.g., evaluate the establishment and integrity of the barrier. Apparent permeability (Papp) of the barrier was calculated by following a previously described method^81. […] After 24 hrs, effluent from both channels was sampled to determine the dye's concentration (amount) that had diffused through the membrane. […] Then, the following equation was used to calculate apparent paracellular permeability (Papp) based on a standard curve and using the following formula:

[2] = system: endothelial cells of the SN Brain-Chip; assay: Morphological analysis of tight junctions in endothelial cells in the αSyn fibril model; format: cell-based, human
Description: The junction protein expression of Claudin-5 was visualized by immunofluorescence staining with a Claudin-5 antibody and DAPI for cell nuclei. Scale bars: 50 μm.
Morphological analysis. Immunocytochemistry, including immunofluorescence microscopy, was conducted as previously described (Pediaditakis et al., 2020). Brief examples of methods are described herein. Brain-Chips were fixed with 4% paraformaldehyde in PBS for 10 min and then washed with PBS. Cells were blocked on the Brain-Chip in phosphate-buffered saline (PBS) containing 10% donkey serum (Sigma) at 4° C. overnight. Immunostaining was performed after permeabilization in PBS with 0.1% Saponin and blocking for 30 min in 10% donkey serum in PBS with 0.1% Saponin. Immunostaining was performed with specific primary antibodies (anti-TH, anti-GFAP, anti-NG2, anti-TMEM119, anti-pSer129-αSyn, anti-Cleaved Caspase-3, anti-CD68; Abcam), (anti-MAP2, and anti-CD31; Thermo Fisher Scientific), (anti-Claudin-1, anti-Claudin-5, anti-Occludin, anti-ZO-1; Invitrogen), in a 1:100 dilution in 10% donkey serum in PBS with 0.1% Saponin and incubated overnight on the Brain-Chip at 4° C. […] Images were acquired with either an Olympus fluorescence microscope (IX83) or an inverted laser-scanning confocal microscope, e.g. Zeiss confocal microscope (AxiovertZ1 LSM880).

HMC3 cells = conditions: 10 ng/ml, 24 h; cited from earlier work
[3] = system: neurons, astrocytes and microglia in the brain channel of the Brain-Chip; format: cell-based, human
Description: Neuroinflammation incorporates a broad spectrum of complex cellular responses that often contribute to the pathogenesis and progression of various neurological disorders. To study the effects of neuroinflammatory specific signals on the Brain-Chip, TNF-α was perfused within the brain channel at a pathophysiological concentration of 100 ng/mL (FIG. 36A and FIG. 35). […] In addition, excessive TNF-α levels have been reported to have an inhibitory effect on glutamate transporters, resulting in increased glutamate concentration in the CNS parenchyma, linking the central inflammatory response to glutamate-mediated toxicity. To test this hypothesis in this system, secreted glutamate levels were measured by enzyme-linked immunosorbent assay (ELISA).
In one embodiment, a model of neuroinflammation was provided by treating cells as a neurovascular unit (brain side) with TNF-alpha added to the brain channel. TNFα, was previously reported to mediate neuroinflammation and detected in patients with neurological. disorders. On days 0 and 1, cells were seeded on the top and bottom channel of one embodiment of a Brain-Chip, respectively. The Brain-Chip is then allowed to mature under flow conditions for 4 more days and on day 5, cells on the brain side are treated with TNFα, for 48 hrs. During exposure, effluent is collected, and on the last day of the experiment, cells in chips may be imaged, stained for immunohistochemistry and imaged. In some embodiments, cells are lysed for transcriptomic analysis. Thus, modeling neuroinflammation comprises Brain chips and methods of use where TNF-a and/or other inflammatory compounds are added to the Brain channel. In some embodiments, such neuroinflamed brain chips are used in methods for developing treatments in addition for testing compounds for efficacy and safety.
(§1) TNF-α treatment. To mimic the inflammatory condition, cells were treated on either brain or vascular channel with TNF-α (Tumor Necrosis Factor-α, R&D Systems; 210-TA). The treatment was initiated after the formation of a confluent monolayer at ˜5 days in culture. Cells were further incubated in a culturing medium, including TNF-α (100 ng/ml) up to 48 hours.
Morphological analysis. Immunocytochemistry, including immunofluorescence microscopy, was conducted as previously described (Pediaditakis et al., 2020). Brief examples of methods are described herein. Brain-Chips were fixed with 4% paraformaldehyde in PBS for 10 min and then washed with PBS. Cells were blocked on the Brain-Chip in phosphate-buffered saline (PBS) containing 10% donkey serum (Sigma) at 4° C. overnight. […] Images were acquired with either an Olympus fluorescence microscope (IX83) or an inverted laser-scanning confocal microscope, e.g. Zeiss confocal microscope (AxiovertZ1 LSM880).

[4] = system: Brain-Chip brain channel cells; assay: Secreted cytokines (MSD V-PLEX) and glutamate in brain channel media of the TNF-α treated Brain-Chip; format: cell-based, human
Description: To determine whether the level of other inflammatory cytokines increases in this TNF-α model, levels of IFNγ, interleukin-1β (IL-1β) and IL-6, were measured following two days of exposure within the brain channel media. These cytokines are associated with the increase of BBB permeability.
In one embodiment, chips were seeded with human iPS-derived glutamatergic and GABAergic neurons (NeuCyte) at a density of 2×10^6 cells/mL and 0.75×10^6 cells/mL respectively, co-cultured with human primary microglia (ATCC; CRL3304) at a density of 1×10^5 cells/mL, human primary astrocytes (NeuCyte), and primary pericytes (Sciencell; 1200) at a density of 1×10^5 cells/mL, using “seeding medium” (NeuCyte), and incubated overnight. The next day, human iPS-derived Brain Microvascular Endothelial cells were seeded in the vascular channel at a density of 14-16×10^6 cells/mL using human serum-free endothelial cell medium supplemented with 5% human serum from platelet-poor human plasma (Sigma) and allowed to attach to the membrane overnight. Chips were then connected to the culture module. At this time, the medium supplying the brain channel was switched to maintenance medium (Neucyte), and the serum of the vascular medium was lowered to 2%. Chips were maintained under constant perfusion at 60 μL/hr through all chips' brain and vascular channels until day 7. Two additional commercial endothelial cell sources were used in experiments. Human primary endothelial cells (Cell Systems) and hCMEC/D3 (Millipore) were cultured in media according to the manufacturer's instructions.
as §1
ELISA analysis. The levels of IFNγ, IL-1β, and IL-6 were measured by M.S.D. 96-well plate Human Pro-Inflammatory V-PLEX Human Pro-Inflammatory Assay kits. The secreted levels of Glutamate were measured by Glutamate Assay Kit (Fluorometric) (Abcam; ab138883).

[5] = system: Blood-Brain Barrier of the Brain-Chip; assay: BBB permeability to 3 kDa dextran in the TNF-α treated Brain-Chip; format: cell-based, human
Description: To directly measure how BBB permeability changed over time in response to TNFα, the transport of 3-kDa Cascade Blue dextran was evaluated across the BBB. Fluorescent dextran molecule was introduced in the vascular channel. After 24 hrs and 48 hrs of exposure, the amount of fluorescent dextran collected in the Brain-side was measured.
as §1
Permeability Assays, e.g., evaluate the establishment and integrity of the barrier. Apparent permeability (Papp) of the barrier was calculated by following a previously described method^81. Briefly, 100 μg mL^−1 (0.1 mg/mL) of dextran (3 kDa, e.g. Cascade Blue) and/or 20 μg mL^−1 of Lucifer (0.5 kDa) tracers were dosed (flowed) through the vascular channels for 24 hrs. After 24 hrs, effluent from both channels was sampled to determine the dye's concentration (amount) that had diffused through the membrane. Concentration of the dextran and Lucifer tracers in the outlet samples from both vascular and brain channels was determined by using BioTek (BioTek Instruments, Inc., Winooski, Vt., USA). […]
Here, SA is the surface area of sections of the channels that overlap (0.17 cm^2), QR and QD are the fluid flow rates in the dosing and receiving channels respectively, in units of cm^3/s, CR,0 and CD,0 are the recovered concentrations in the dosing and receiving channels respectively, in any consistent units. IgG permeability was also evaluated after dosing the vascular channel and measuring the IgG content on the brain channel. Detection and quantitation of serum immunoglobulin G (IgG1; Abcam) was performed using the ELISA kit (Abcam), after 24 hrs of perfusion.

[6] = system: iPS-derived brain endothelial cells; assay: Immunofluorescence of ZO-1 and ICAM-1 in the vascular channel of the TNF-α treated Brain-Chip; format: cell-based, human
Description: BBB permeability assays were done on the Brain-Chip upon exposure to TNF-α compared to the untreated group.
Morphological analysis. Immunocytochemistry, including immunofluorescence microscopy, was conducted as previously described (Pediaditakis et al., 2020). Brief examples of methods are described herein. Brain-Chips were fixed with 4% paraformaldehyde in PBS for 10 min and then washed with PBS. Cells were blocked on the Brain-Chip in phosphate-buffered saline (PBS) containing 10% donkey serum (Sigma) at 4° C. overnight. Immunostaining was performed after permeabilization in PBS with 0.1% Saponin and blocking for 30 min in 10% donkey serum in PBS with 0.1% Saponin. Immunostaining was performed with specific primary antibodies (anti-TH, anti-GFAP, anti-NG2, anti-TMEM119, anti-pSer129-αSyn, anti-Cleaved Caspase-3, anti-CD68; Abcam), (anti-MAP2, and anti-CD31; Thermo Fisher Scientific), (anti-Claudin-1, anti-Claudin-5, anti-Occludin, anti-ZO-1; Invitrogen), in a 1:100 dilution in 10% donkey serum in PBS with 0.1% Saponin and incubated overnight on the Brain-Chip at 4° C. Additional primary antibodies were MAP2 (Thermo Fisher Scientific; MA512826), VGLUT1 (Thermo Fisher Scientific; 48-2400), GFAP (Abcam; ab53554), NG2 (Abcam; ab83178), CD68 (Abcam; ab213363), ICAM-1 (R&D Systems; BBA3), ZO-1 (Thermo Fisher Scientific; 402200), GLUT1 (Thermo Fisher Scientific; SPM498). Fluorescently conjugated secondary antibodies with Alexa Fluor-488, Alexa Fluor-568, or Alexa Fluor-647 (Abcam) were then used when the primary antibodies are not conjugated, incubated in the dark for 2 hr at room temperature. Cells were then counterstained with DAPI nuclear stain. Images were acquired with either an Olympus fluorescence microscope (IX83) or an inverted laser-scanning confocal microscope, e.g. Zeiss confocal microscope (AxiovertZ1 LSM880).

[7] = TNF-α 100 ng/mL perfused within the brain channel, two days, vs untreated
[8] = TNF-α 100 ng/mL in brain channel (neuroinflammation), two days, vs untreated
[9] = TNF-α perfused within the vascular channel (systemic inflammation), two days, vs untreated
[10] = TNF-α 100 ng/mL within the vascular channel, vs control

OC[C@H]1O[C@H](O[C@H]2O[C@H](CO)[C@@H](O)[C@H](O)[C@H]2O)[C@H](O)[C@@H](O)[C@@H]1O [trehalose, O-α,-d-glucopyranosyl-[1→1]-α-d-glucopyranoside]
accumulation of αSyn within the cells of the brain channel [1]: diminished the accumulation of αSyn
BBB permeability (3 kDa dextran) (BBB in the SN Brain-Chip): significantly decreased BBB permeability
tight junctions (ZO-1, Claudin-5) ([2]; αSyn fibril damaged SN Brain-Chips, trehalose treated, D8): rescuing damaged tight junctions
junction protein expression of ZO-1 ([2]; αSyn fibril model with or without trehalose treatment): restoration of junction protein expression of ZO-1

IFN-gamma: cytokine used to activate HMC3 microglia cells
markers of activated microglia MHCII, CD68 and CD11b (HMC3 cells): upregulated

TNF-α
microglia activation (phenotypic changes, phagocytosis of latex beads) ([3]; TNF-alpha 100 ng/ml): activates microglia as shown by phenotypic changes and induction of phagocytosis
proportion of the GFAP-positive cells [3, 7]: significantly increased
proportion of the MAP2-positive cells [3, 7]: decreased
activated microglia (CD68 expression) ([3]; TNF-α 100 ng/mL, brain channel, two days of exposure): activated microglia were also observed
IL-6 production, Brain chips with and without microglial cells ([4]; TNF-alpha, 24 and 48 hours): induced significant IL-6 production in both embodiments
IL-6 secreted, Brain chips including microglial cells over those without ([4]; TNF-alpha, after both 24 and 48 hours): unexpected significant increase
secreted glutamate levels (ELISA), media of the brain channel ([4]; TNF-α 100 ng/mL brain channel, two days, vs untreated): significantly higher
level of IFNγ in brain channel media [4, 8]: significantly higher
level of IL-1β in brain channel media [4, 8]: significantly higher
level of IL-6 in brain channel media [4, 8]: significantly higher
level of IL-6 in brain channel media, absence of microglia ([4]; TNF-α exposure, Brain-Chip without microglia): not stigmatically changed
level of IFNγ in brain channel media [4, 9]: significantly higher levels
level of IL-1β in brain channel media [4, 9]: significantly higher levels
level of IL-6 in brain channel media [4, 9]: significantly higher levels
permeability to 3 kDa dextran ([5]; TNF-α 100 ng/mL in brain channel, 24 and 48 hrs, time dependent): significantly increased permeability
permeability to 3 kDa dextran ([5]; TNF-α 100 ng/mL perfused within the vascular channel (systemic inflammation)): significantly increased permeability
transport through the BBB (apparent permeability) vs vehicle control ([5]; TNFα 100 ng/mL on the brain side, 24 hrs and 48 hrs): significantly increased by three times over the control
expression of BBB tight junction protein ZO-1 [6, 10]: significantly attenuated
expression of ICAM-1 [6, 10]: increased
ZO-1 expression ([6]; TNF-α in brain channel, 48 hrs): loss of ZO-1
intercellular adhesion molecule 1 (ICAM-1) expression ([6]; TNF-α in brain channel, 48 hrs): excessive increase
